Source: patent publication US6743917B2, “Camptothecin analogs and methods of preparation thereof” (University of Pittsburgh, priority 1993, dated 2004)
Where two headings read alike, the source gives them in different places.

Legend:
[1] = system: 833K (human teratocarcinoma) cells; test: Cytotoxicity assay, 833K cells (sulforhodamine B protein content); type: cell-based; conditions: read-out: Inhibition of cancer cell growth IC50, 833K
Description: (§1) Cultures were fixed with trichloroacetic acid and then stained for 30 minutes with 0.4% sulforhodamine B dissolved in 1% acetic acid. Unbound dye was removed by acetic acid washes, and the protein-bound dye was extracted with an unbuffered Tris base [tris(hydroxy-methyl)aminomethan] for determination of absorbance at 570 nm in a 96-well microplate reader. The experiments were carried out in duplicate using five to six concentrations of the drugs tested. Data were analyzed via computer software.

[2] = system: DC-3F (hamster lung) cells; test: Cytotoxicity assay, DC-3F cells (sulforhodamine B protein content); type: cell-based; conditions: read-out: Inhibition of cancer cell growth IC50, DC-3F
Description: as §1

[3] = system: HL-60 (human promyelocytic leukemic) cells; test: Cytotoxicity assay, HL-60 cells (XTT-microculture tetrazolium assay); type: cell-based; conditions: read-out: Inhibition of cancer cell growth IC50, HL-60
Description: The camptothecin derivatives were evaluated for their cytotoxic effects on the growth of HL-60 (human promyelocytic leukemic), 833K (human teratocarcinoma) and DC-3F (hamster lung) cells in vitro. The cells were cultured in an initial density of […]. They were maintained in a 5% CO2 humidified atmosphere at 37° C. in RPMI-1640 media (GIBCO-BRL Grand Island, N.Y.) containing penicillin 100 μ/ml)/streptomycin (100 ^μg/ml) (GIBCO-BRL) and 10% heat inactivated fetal bovine serum. The assay was performed in duplicate in 96-well microplates. The cytotoxicity of the compounds toward HL-60 cells following 72 hr incubation was determined by XTT-microculture tetrazolium assay. Scudiero, D. A., et al., Cancer Res., 48, 4827 (1988), the disclosure of which is incorporated herein by reference. 2′, 3′-bis(-methoxy-4-nitro-5-sulfheny)-5-[(phenylamino)carbonyl]-2H-tetrazolium hydroxide (XTT) was prepared at 1 mg/ml in prewarmed (37° C.) medium without serum. Phenazine methosulfate (PMS) and fresh XTT were mixed together to obtain 0.075 mM PMS-XTT solution (25 ^μl of the stock 5 mM PMS was added per 5 ml of 1 mg/ml XTT). Fifty ^μl of this mixture was added to each well of the cell culture at the end of 72 hr incubation. After incubation at 37° C. for 4 hr., absorbance at 450 nm and 630 nm was measured with a microplate reader (EL340, Bio-Tek Instruments, Inc., Winooski, Vt.).

[4] = Equilibrium binding to DMPC small unilamellar vesicles (fluorescence anisotropy titration); conditions: PBS buffer at PH 7.4 and 37° C.
[5] = Equilibrium binding to DMPG small unilamellar vesicles (fluorescence anisotropy titration); conditions: PBS buffer at PH 7.4 and 37° C.
[6] = Kinetics of lactone ring opening in whole human blood (HPLC); conditions: Whole Blood, physiological temperature;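 also: hydrolytic opening of the camptothecin lactone ring followed over time by quantitative C18 reversed-phase HPLC in human whole blood at physiological temperature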
[7] = Kinetics of lactone ring opening in PBS containing HSA (HPLC); conditions: HSA (PBS containing 30 mg/ml HSA)
[8] = Kinetics of lactone ring opening in PBS buffer (HPLC); type: physicochemical; conditions: PBS
Description: Kinetics of Lactone Ring Opening. […] Mi and Burke (1994), supra.
FIG. 21 summarizes the stability of DB172 in phosphate buffered saline (PBS) buffer, pH 7.4, at physiological temperature. Shown in the figure are plots of lactone fraction as a function of time for DB172 at different concentrations. Drug was added to solution from a concentrated DMSO stock solution such that the volumes of DMSO were very small (less than 0.5%) relative to the volume of water. […] At the more dilute drug concentrations the drug hydrolyzes as previously observed for other camptothecins containing the ^α-hydroxy-^δ-lactone moiety.

[9] = Kinetics of lactone ring opening in RBC (HPLC); type: in vitro ADME, human; conditions: RBC
Source text: Kinetics of Lactone Ring Opening. […] Mi and Burke (1994), supra. […] Louis, Mo.) was used.

[10] = Homo sapiens, 833K cells, sulforhodamine B
[11] = Mesocricetus auratus, DC3F, DC-3F cells, sulforhodamine B
[12] = Homo sapiens, HL-60 cells, 72 hr incubation, XTT
[13] = HL-60 cells, 72 hr incubation, XTT

In the case of CCC1(O)C(=O)OCc2c1cc1n(c2=O)Cc2c-1nc1ccccc1c2[Si](c1ccccc1)(c1ccccc1)C(C)(C)C (stereo in doubt) [Example 3, (20S)-7-tert-butyldiphenylsilylcamptothecin], the IC50 [1, 10] is reported as 243 nM, the IC50 [2, 11] is reported as 663 nM and the IC50 [3, 12] is reported as 339 nM.

For CCC1(O)C(=O)OCc2c1cc1n(c2=O)Cc2c-1nc1ccc(OC(C)=O)cc1c2[Si](C)(C)C (stereo in doubt) [Example 4, (20S)-10-acetoxy-7-trimethylsilylcamptothecin], the IC50 [2, 11] was 6.7 nM and the IC50 [3, 12] was 2.7 nM.

With CCC1(O)C(=O)OCc2c1cc1n(c2=O)Cc2c-1nc1ccc(O)cc1c2[Si](C)(C)C (stereo in doubt) [Example 5, (20S)-10-hydroxy-7-trimethylsilylcamptothecin] the IC50 [1, 10] was 7 nM, the IC50 [2, 11] was 6.9 nM and the IC50 [3, 12] was 2.6 nM.

Molecule CCC1(O)C(=O)OCc2c1cc1n(c2=O)Cc2c-1nc1ccc(OC(=O)N3CCC(N4CCCCC4)CC3)cc1c2[Si](C)(C)C (stereo in doubt) [Example 6, (20S) 7-trimethylsilyl-irinotecan] has an IC50 ([1]; Homo sapiens, 833K) of 214 nM, an IC50 ([2]; Mesocricetus auratus, DC3F) of 256 nM and an IC50 ([3]; Homo sapiens, HL-60, 72 h) of 66 nM.

CCC1(O)C(=O)OCc2c1cc1n(c2=O)Cc2c-1nc1cc(N)ccc1c2[Si](C)(C)C (stereo in doubt) [Example 9, (20S)-11-amino-7-trimethylsilylcamptothecin] gave an IC50 [1, 10] of 7.4 nM, an IC50 [2, 11] of 6.4 nM and an IC50 [3, 12] of 2.6 nM.

Work on CCC1(O)C(=O)OCc2c1cc1n(c2=O)Cc2c-1nc1cc(F)c(N)cc1c2[Si](C)(C)C (stereo in doubt) [Example 10, (20S)-11-fluoro-10-amino-7-trimethylsilylcamptothecin] yielded an IC50 [1, 10] of 0.14 nM, an IC50 [2, 11] of 0.29 nM and an IC50 [3, 12] of 0.07 nM.

For CCCCc1c2c(nc3ccc(O)cc13)-c1cc3c(c(=O)n1C2)COC(=O)C3(O)CC (stereo not drawn) [7-butyl-10-hydroxycamptothecin], the “KDMPC overall association constant” value [4] was 2100 M⁻¹ and the “KDMPG overall association constant” value [5] was 1270 M⁻¹.

In the case of CCc1c2c(nc3ccc(OC)cc13)-c1cc3c(c(=O)n1C2)COC(=O)C3(O)CC (stereo not drawn) [7-ethyl-10-methoxycamptothecin], the “KDMPC overall association constant” value [4] is reported as 340 M⁻¹ and the “KDMPG overall association constant” value [5] is reported as 330 M⁻¹.

For CCc1c2c(nc3ccccc13)-c1cc3c(c(=O)n1C2)COC(=O)[C@]3(O)CC [7-ethyl-20(S)-camptothecin], the “KDMPC overall association constant” value [4] was 250 M⁻¹ and the “KDMPG overall association constant” value [5] was 300 M⁻¹.

For CCC1(O)C(=O)OCc2c1cc1n(c2=O)Cc2c-1nc1ccc(O)cc1c2C (stereo not drawn) [7-methyl-10-hydroxycamptothecin], the “KDMPC overall association constant” value [4] was 220 M⁻¹ and the “KDMPG overall association constant” value [5] was 90 M⁻¹.

In the case of CCC1(O)C(=O)OCc2c1cc1n(c2=O)Cc2c-1nc1ccc(OC)cc1c2C (stereo not drawn) [7-methyl-10-methoxycamptothecin], the “KDMPC overall association constant” value [4] is reported as 220 M⁻¹ and the “KDMPG overall association constant” value [5] is reported as 200 M⁻¹.

In the case of CC[C@@]1(O)C(=O)OCc2c1cc1n(c2=O)Cc2c-1nc1ccccc1c2C [7-methyl-20(S)-camptothecin], the “KDMPC overall association constant” value [4] is reported as 150 M⁻¹ and the “KDMPG overall association constant” value [5] is reported as 180 M⁻¹.

For CCCc1c2c(nc3ccc(O)cc13)-c1cc3c(c(=O)n1C2)COC(=O)C3(O)CC (stereo not drawn) [7-propyl-10-hydroxycamptothecin], the “KDMPC overall association constant” value [4] was 550 M⁻¹ and the “KDMPG overall association constant” value [5] was 250 M⁻¹.

For CCCc1c2c(nc3ccc(OC)cc13)-c1cc3c(c(=O)n1C2)COC(=O)C3(O)CC (stereo not drawn) [7-propyl-10-methoxycamptothecin], the “KDMPC overall association constant” value [4] was 440 M⁻¹ and the “KDMPG overall association constant” value [5] was 570 M⁻¹.

For CCCc1c2c(nc3ccccc13)-c1cc3c(c(=O)n1C2)COC(=O)[C@]3(O)CC [7-propyl-20(S)-camptothecin], the “KDMPC overall association constant” value [4] was 540 M⁻¹ and the “KDMPG overall association constant” value [5] was 600 M⁻¹.

In the case of CC[C@@]1(O)C(=O)OCc2c1cc1n(c2=O)Cc2c-1nc1ccc(O)cc1c2[Si](C)(C)CCCN(C)C.Cl [DB-124, 10-hydroxy-7-(3-dimethylaminopropyldimethylsilyl) camptothecin hydrochloride salt], the “% Lactone at Equilibrium” value [6] is reported as 31.8 +/− 0.8%, the t1/2 [6] is reported as 63.1 ± 7.4 min and the “% Lactone at Equilibrium” value [7] is reported as 12.2 +/− 0.3%. The t1/2 [7] was 40.0 ± 0.3 min and the “% Lactone at Equilibrium” value [8] was 8.9 +/− 0.3%.

In the case of CC[C@@]1(O)C(=O)OCc2c1cc1n(c2=O)Cc2c-1nc1ccccc1c2[Si](C)(C)CCCCl [DB-148, (20S)-7-(3-chloropropyldimethylsilyl)camptothecin], the “% Lactone at Equilibrium” value [9] is reported as 43.4 +/− 0.8%, the t1/2 [9] is reported as 59.7 ± 2.9 min and the “% Lactone at Equilibrium” value [6] is reported as 2.2 +/− 3.6%. For the same molecule, the t1/2 [6] was 85.6 ± 9.2 min, the “% Lactone at Equilibrium” value [7] was 2.7 +/− 0.2% and the t1/2 [7] was 16.0 ± 0.2 min. The “% Lactone at Equilibrium” value [8] was 12.0 +/− 0.5%.

With CC[C@@]1(O)C(=O)OCc2c1cc1n(c2=O)Cc2c-1nc1ccccc1c2[Si](C(C)C)(C(C)C)C(C)C [Example 12, 20S-7-triisopropylsilylcamptothecin] the IC50 [1, 10] was 10700 nM, the IC50 [2, 11] was 1040 nM and the IC50 [3, 12] was 1510 nM.

With CC[C@@]1(O)C(=O)OCc2c1cc1n(c2=O)Cc2c-1nc1ccccc1c2[Si](CC)(CC)CC [Example 13, (20S)-7-Triethylsilylcamptothecin] the IC50 [1, 10] was 122 nM, the IC50 [2, 11] was 57.1 nM and the IC50 [3, 12] was 31.9 nM.

In the case of CC[C@@]1(O)C(=O)OCc2c1cc1n(c2=O)Cc2c-1nc1ccccc1c2[Si](C)(C)CC1CCC2CC1C2(C)C (stereo partly drawn) [Example 14, (20S)-7-(dimethyl-(1′S,2′S,5′S) 7,7 dimethylnorpinylsilyl)camptothecin], the IC50 [1, 10] is reported as 197 nM, the IC50 [2, 11] is reported as 64.1 nM and the IC50 [3, 12] is reported as 66.9 nM.

CC[C@@]1(O)C(=O)OCc2c1cc1n(c2=O)Cc2c-1nc1ccccc1c2[Si](C)(C)CCCC#N [Example 15, (20S)-7-(3-cyanopropyldimethylsilyl)camptothecin] gave an IC50 [1, 10] of 2.7 nM, an IC50 [2, 11] of 2.7 nM and an IC50 [3, 12] of 0.91 nM.

Molecule CC[C@@]1(O)C(=O)OCc2c1cc1n(c2=O)Cc2c-1nc1ccccc1c2[Si](C)(C)CCCCl [Example 16, (20S)-7-(3-halopropyldimethylsilyl) camptothecin] has an IC50 [1, 10] of 5.4 nM, an IC50 [2, 11] of 2.3 nM and an IC50 [3, 12] of 2.1 nM.

With CC[C@@]1(O)C(=O)OCc2c1cc1n(c2=O)Cc2c-1nc1ccc(OC(C)=O)cc1c2[Si](C)(C)C(C)(C)C [Example 17, (20S)10-acetoxy-7-tert-butyldimethylsilylcamptothecin] the IC50 [2, 11] was 3.57 nM and the IC50 [3, 12] was 1.86 nM.

For CC[C@@]1(O)C(=O)OCc2c1cc1n(c2=O)Cc2c-1nc1ccc(OC(C)=O)cc1c2[Si](C)(C)C(C)(C)C [Example 18, (20S)10-Acetoxy-7-tert-butyldimethylsilylcamptothecin], the IC50 ([2]; DC-3F cells, sulforhodamine B) was 5.2 nM and the IC50 [3, 13] was 2.6 nM.

For “(20S)-11,12-difluoro-7-trimethylsilylcamptothecin and (20S)-9,10-difluoro-7-trimethylsilylcamptothecin [Example 11]”, the IC50 ([1]; 833K cells, sulforhodamine B) was 2.1 nM, the IC50 ([2]; DC-3F cells, sulforhodamine B) was 2.5 nM and the IC50 [3, 13] was 1.01 nM.
